Molecular target: T1, human TCH169 (Homo sapiens, UniProt Q86YT5)
T1 construct: expressed in transfected cells
Test: [1,5-^14C] citric acid uptake in the human TCH169 gene expression cell line
Type: cell-based
Conditions: human TCH169 expressing CHO cells clone No. 2-11; NaCl buffer (140 mM NaCl) vs NMDG buffer and Mock cells; 37° C., 15 minutes, 30 minutes and an hour
Description: Using human TCH169 gene expression cell line clone No. 2-11 acquired in EXAMPLE 7, the uptake of [1,5-^14C] citric acid was assayed. Human TCH169 gene expression cell line clone No. 2-11 was seeded on a 96 well plate in 4×10^4 cells per well, followed by incubation at 37° C. for 24 hours. After the medium was removed, the cells were washed 3 times with 150 μL NMDG buffer (140 mM N-methyl-D(−)-glucamine, 25 mM Hepes/Tris, 5.4 mM KCl, 1.8 mM CaCl2, 0.8 mM MgSO4, 5 mM glucose, pH 7.4-7.6), and 150 μL NMDG buffer was supplemented thereto followed by incubation at 37° C. for an hour. After the buffer was replaced with 90 μL NaCl buffer (140 mM NaCl, 25 mM Hepes/Tris, 5.4 mM KCl, 1.8 mM CaCl2, 0.8 mM MgSO4, 5 mM glucose, pH 7.4-7.6) or 90 μL NMDG buffer, 10 μL of 223 μM [1,5-^14C] citric acid (manufactured by Amersham-Pharmacia-Biotech) was added and incubation was performed at 37° C. for 15 minutes, 30 minutes and an hour followed by washing 3 times with 200 μL PBS (manufactured by Takara Shuzo Co., Ltd.). After 100 μL of Opitiphase ‘SuperMix’ (manufactured by Perkin-Elmer-Life Science) was added to the system and the mixture was stirred, the amount of [1,5-^14C] citric acid taken up into the cells was measured in terms of the radioactivity. […] CHO dhfr^− cells transfected with vector pcDNA3.1(+) (Mock) was also treated in a similar manner to measure the radioactivity as well.

T1 sequence (Q86YT5 whole entry): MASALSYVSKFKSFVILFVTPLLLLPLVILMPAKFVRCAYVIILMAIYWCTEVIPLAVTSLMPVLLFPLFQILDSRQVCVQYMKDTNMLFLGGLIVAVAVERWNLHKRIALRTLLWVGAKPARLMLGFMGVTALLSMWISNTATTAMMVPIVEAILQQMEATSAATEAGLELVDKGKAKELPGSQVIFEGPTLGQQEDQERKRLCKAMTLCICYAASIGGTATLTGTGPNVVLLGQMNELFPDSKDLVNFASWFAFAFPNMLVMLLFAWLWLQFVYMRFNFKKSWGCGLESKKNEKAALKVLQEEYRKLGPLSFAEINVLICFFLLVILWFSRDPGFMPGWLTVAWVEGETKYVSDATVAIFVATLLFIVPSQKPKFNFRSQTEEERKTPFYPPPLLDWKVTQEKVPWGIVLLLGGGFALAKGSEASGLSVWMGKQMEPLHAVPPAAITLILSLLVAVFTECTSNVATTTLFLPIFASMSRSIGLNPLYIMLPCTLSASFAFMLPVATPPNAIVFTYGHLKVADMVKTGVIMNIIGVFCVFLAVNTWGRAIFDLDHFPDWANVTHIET

## O=C(O)C(O)(C[14C](=O)O)C[14C](=O)O [[1,5-^14C] citric acid]
  uptake of [1,5-^14C] citric acid into the cells (radioactivity): taken up into the human TCH169 expression CHO cells

Reference: patent US20040253597A1, “Novel protein and dna thereof” (priority 2001, published 2004)
